# Results reported in patent publication US20250281645A1, “Lentiviral Vector” (Ospedale San Raffaele S.r.l., priority 2022, published 2025).
# Assays:
# Details in all cases: mouse, in vivo
# [1] = tested on: Adult mice
# [2] = tested on: C57 mice
# Method: (§1) (a) Experimental design: 8 weeks old mice C57 or Ldlr^−/− (n=4-6 per each condition) are injected with Bortezomib and/or Marl and/or fasted for 24 hours, before receiving LV (dose 2.75×10^10 TU/Kg) i.v. Then, hFIX is monitored in treated mice longitudinally. (b, c) Mean with SEM of hFIX antigen measured in the plasma of LV treated mice over time (4 and 26 wk post LV timepoint). Two-way ANOVA with Dunnett's multiple comparisons test vs LV control, performed for each of the two strains used.
# (§2) According to the groups, mice were either faster for 24 hours, injected with Marl 3 hours before LV and/or injected with Bortezomib 1-hour before LV. Circulating hFIX amounts were then monitored longitudinally (FIG. 11A).
# Wild-type C57Bl/6 adults, Ldlr/adults, Alb-F8*R593C adults, Ldlr^−/− 2-week old mice and C57 BI/6 2-week old were used in these studies. Founder B6; 129S-7-Ldlrtm1 Her/J mice (referred to as Ldlr^−/−) were obtained from the Jackson Laboratories (stock #:002207). […] C57BL/6 mice were purchased from Jackson laboratories (stock #000664). […]
# (§3) hFIX ELISA assay was used to assess hFIX concentration in mouse plasma samples (Affinity Biologicals, FIX-EIA), in accordance with the manufacturer's protocol. Absorbance of each sample was determined spectrophotometrically, using a Multiskan GO microplate reader (Thermo Fisher Scientific) and normalized to antigen standard curves.
# [3] = tested on: Ldlr^−/− mice
# Method: as §1, §2
# Wild-type C57Bl/6 adults, Ldlr/adults, Alb-F8*R593C adults, Ldlr^−/− 2-week old mice and C57 BI/6 2-week old were used in these studies. Founder B6; 129S-7-Ldlrtm1 Her/J mice (referred to as Ldlr^−/−) were obtained from the Jackson Laboratories (stock #:002207). […] C57BL/6 mice were purchased from Jackson laboratories (stock #000664). […] LV was administered in adult mice, males and females (7-10-weeks of age), through either tail vein or retro-orbital plexus (250-500 μL/mouse). LV was administered in juvenile mice (2 weeks of age) through retro-orbital plexus (100-200 μL/mouse). Mice were bled from the retro-orbital plexus through capillary tubes. Blood was collected in 0.38% sodium citrate buffer, pH 7.4. […] For fasting experiments, mice were starved for 24-hours and then treated or not with LV. For experiments with Bortezomib (Velcade), the drug (1 mg/kg) was administered, once diluted in saline, i.v. 1 hour before LV administration. […]
# as §3
structure (smiles),measurement,setting,value
CC(C)C[C@H](NC(=O)[C@H](Cc1ccccc1)NC(=O)c1cnccn1)B(O)O [Bortezomib],VCN in KC,[1],reduced VCN
same,VCN in LSEC,[1],increase
same,VCN in hepatocytes,[1],trend of increase
same,VCN in pDC,[1],reduced VCN
same,hFIX circulating amounts versus controls,[1]; iv,higher than controls
same,"transgene output in combination with fasting, versus LV controls",[2],11-12 fold
same,"transgene output compared to LV only, single treatment",[2]; iv,enhanced transgene output
same,"overall increase in transgene output, combination of fasting and Bortezomib",[3],4.5-6 fold
same,"transgene output when combined with fasting, compared to use as single treatments",[3],milder increase in Ldlr^−/− than C57
same,"transgene output, single treatment",[3],give an advantage
